“And” between values parts separate entries of the source, which are not always exact repeats. Identical values can stand only once.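 Briefly, cells in 96-well plates were exposed to five compound concentrations for 48 h, and endpoints were estimated by linear interpolation. GI50 is the concentration that inhibits growth by half. TGI: concentration producing complete growth inhibition.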
Legend:
Experiment in all cases: DTP human tumour cell line panel, 48 h
MALME-3M melanoma = tested on: MALME-3M melanoma
HCC-2998 colon = tested on: HCC-2998 colon
A549 NSCLC = tested on: A549 NSCLC
CAKI-1 renal = tested on: CAKI-1 renal
RXF 393 renal = tested on: RXF 393 renal
MDA-MB-231 breast = tested on: MDA-MB-231 breast
786-0 renal = tested on: 786-0 renal
MDA-MB-435 = tested on: MDA-MB-435
SR leukemia = tested on: SR leukemia
SF-295 CNS = tested on: SF-295 CNS

Row | SMILES | GI50 (MALME-3M melanoma) [µM] | TGI (MALME-3M melanoma) | GI50 (HCC-2998 colon) [µM] | TGI (HCC-2998 colon) [µM] | GI50 (A549 NSCLC) | TGI (A549 NSCLC) | GI50 (CAKI-1 renal) [µM] | TGI (CAKI-1 renal) | GI50 (RXF 393 renal) [µM] | TGI (RXF 393 renal) | GI50 (MDA-MB-231 breast) | TGI (MDA-MB-231 breast) | GI50 (786-0 renal) [µM] | TGI (786-0 renal) [µM] | GI50 (MDA-MB-435) [µM] | TGI (MDA-MB-435) [µM] | GI50 (SR leukemia) [µM] | TGI (SR leukemia) [µM] | GI50 (SF-295 CNS) [µM] | TGI (SF-295 CNS) [µM]
1 | CC(C)=CCc1ccc(O)c(=O)cc1C(C)C | 0.966 | 9.39 µM | 0.583 | 29.8 | 0.656 µM | > 100 µM | 0.29 | 2.4 µM | 1.55 | 17.4 µM | 3.36 µM | > 100 µM | 0.816 | 5.4 | 0.814 | > 100 | 0.465 | > 100 | 0.939 | > 36.9
2 | COc1cc(C(=O)N2CCN(c3ccccc3OC)CC2)c(N)cc1OCc1ccccc1 | 22.3 | 55.6 µM | 40 | > 100 | 34.8 µM | > 100 µM | 37.9 | > 100 µM | 25.3 | 85.9 µM | 19.2 µM | 42.6 µM | 45.6 | > 100 | 28.1 | 76.5 | 22.5 | 48.7 | 40.3 | > 100
3 | NC(N)=N/N=C(/c1ccccc1)c1ccc(Cl)cc1 | 53.3 | > 100 µM | 16.3 | 47.5 | 15.5 µM | > 100 µM | 13.9 | > 100 µM | 12.3 | 59.9 µM | 16.5 µM | 56.6 µM | 16 | > 100 | 2.74 | 9.27 | 3.94 | > 100 | 10.3 | > 100
4 | N#CCC12CC=CCC1=C(O)C(=O)c1ccc(O)cc12 (stereo unspecified) |  | > 100 µM |  | > 100 |  | > 100 µM |  | > 100 µM |  | > 100 µM |  | > 100 µM |  | > 100 |  | > 100 |  | > 100 |  | > 100
5 | c1ccc2c(Nc3ccc(Oc4ccc(Nc5c6ccccc6nc6ccccc56)cc4)cc3)c3ccccc3nc2c1 | 2.08 | 3.02 µM and 3.82 µM |  | 0.0155 | 0.265 µM and 0.227 µM | 0.792 µM and 0.54 µM | 1.82 | 3.22 µM and 3.01 µM | 1.56 | 3.87 µM and > 27.2 µM | 0.197 µM and 0.139 µM | 0.566 µM and 0.268 µM |  | 0.0305 |  | 0.4 | 0.126 | 0.323 |  | 0.829
6 | CC1CC(C)/C(=N/NC(N)=O)C(C(O)CC2CCC(=O)NC2=O)C1 (stereo unspecified) | 3.21 | 41.8 µM | 5.07 | > 100 | 2.36 µM | 56.7 µM | 1.22 | 20.3 µM | 3.21 | 31.7 µM | 8.4 µM | 88.9 µM | 3.46 | > 100 | 3.3 | 97 | 8.1 | > 100 | 1.68 | 13.5
7 | CC(C)(C)c1cn2cccc(C(=O)N3CCN(CC(=O)Nc4ccc(Cl)cc4C(=O)c4ccccc4Cl)CC3)c2n1 | 19.9 | 38.8 µM | 10.3 | 75.1 | 2.64 µM | 23.3 µM | 3.31 | 14.2 µM | 1.71 | 6.34 µM | 13.1 µM | 34.5 µM | 24.4 | 85.2 | 6.39 | 21.6 | > 100 | > 100 | 4.05 | 7.18
8 | COc1cc(Nc2ncc3c(C)nc(-c4cccc(Oc5ccccc5)c4)n3n2)cc(OC)c1OC | 5.32 | 18.7 µM | 5.15 | > 25 | 6.32 µM | > 25 µM | 1.24 | > 25 µM | 2.28 | > 25 µM | 4.99 µM | > 24.2 µM | 6.2 | > 25 | 6.26 | > 25 | 5.99 | > 21.4 | 7.2 | > 25
9 | N#Cc1c(NC(=O)c2cccc3ccccc23)sc2c1CCCC2 | 0.0174 | > 25 µM | 0.0751 | > 7.9 | 0.0788 µM | > 25 µM | 0.0637 | > 25 µM | 0.0331 | 0.121 µM | 0.148 µM | > 14.5 µM | 0.101 | > 25 | 0.00636 | 0.0193 | 0.026 | > 9.97 | 0.0109 | > 25
10 | O=c1oc2ccc(F)cc2c(=O)n1-c1ccc(Cl)cc1F | 0.403 | 2.51 µM | 2.89 | 10.8 | 2.17 µM | > 100 µM | 0.36 | 3.41 µM | 0.974 | 4.48 µM | 0.675 µM | 6.33 µM | 2.8 | 8.85 | 0.674 | 5.48 | 0.619 | > 39.1 | 1.82 | 3.66
11 | CS(=O)(=O)Nc1cccc(-c2ccc3c(NC(=O)C4CC4)n[nH]c3c2)c1 | > 4.93 | > 25 µM | 4.08 | > 25 | 10.9 µM | > 25 µM | > 20.6 | > 25 µM | 1.28 | > 25 µM | 6.35 µM | > 25 µM | 12.2 | > 25 | 0.165 | 0.944 | 0.355 | > 25 | 5.65 | > 25
12 | CCCCCCCCCCCCCCCCOC(=O)c1c(C)[nH]c(/C=C2\N=C(c3ccc[nH]3)C=C2OC)c1C | 3.67 | 29.8 µM | 0.244 | 14.9 | 0.239 µM | 12.8 µM | 0.212 | 30.5 µM | 1.41 | 6.46 µM | 0.789 µM | 10.1 µM | 1.07 | 14.4 | 0.307 | > 100 | 1.54 | > 100 | 2.7 | 11
13 | O=C(Nc1ccc(Cl)cc1)c1ccc([N+](=O)[O-])o1 | 2.25 | 5.21 µM | 1.44 | 2.98 | 2.64 µM | 9.21 µM | 2.34 | 10.1 µM | 1.34 | 3.42 µM | 6.79 µM | 47.2 µM | 1.91 | 4.05 | 2.25 | 6.2 | 0.553 | 16.5 | 3.29 | 12.3
